Measurements published in PMC8223974, “Anti-Cancer and Immunomodulatory Activity of a Polyethylene Glycol-Betulinic Acid Conjugate on Pancreatic Cancer Cells” (Life, 2021).
“And” between values parts separate entries of the source, which are not always exact repeats. Equal values may be shown once.

Key:
MIA PaCa-2 cells [1] = assay: XTT cytotoxicity assay on MIA PaCa-2 cells; assay type: cell-based; settings: 72 h
Procedure: (§1) The cytotoxic effect of BA and PEG–BA was assessed using the 2,3-bis-(2-methoxy-4-nitro-5-sulfophenyl)-2H-tetrazolium-5-carboxanilide (XTT) assay, an improved tetrazolium dye based assay that obviates the solubilisation step [41]. A concentration of 1 × 10^5 cells/mL each of adherent MIA PaCa-2 and Vero cells were seeded into 96-well plates (BD Biosciences, San Diego, California, USA) overnight before treatment with the compounds at concentrations ranging from 0.4 to 100 µM for 72 h. Doxorubicin (0.2 µg/mL) was used as a positive control for cell death assessment and DMSO was used as a vehicle control. After treatment, washed cells (433× g, 5 min, 25 °C) were exposed to 125 µL of complete DMEM containing 25 µL of XTT solution and incubated (37 °C, 5% CO2, 95% humidity) for 4 h. The optical density of the mixture was measured at 450 nm with a background at 690 nm using a Multiskan Ascent 96/384 microplate reader (Labsystem, Vantaa, Finland). Cell viability was determined as a percentage relative to the vehicle control. The IC50 was then calculated using GraphPad Prism 6 (GraphPad Software, Inc, San Diego, CA, USA). The selectivity index (IC50 Vero cells/IC50 MIA PaCa-2) and potentiation factor (PF50) at 50% growth inhibition (IC50) were also determined. The PF50 is the IC50 value of free drug divided by the IC50 value obtained from a combination of drugs, which is the polymer drug conjugate in this case. Statistical significance was calculated using a two-way analysis of variant (ANOVA) and the Bonferroni post-test to compare replicate means in GraphPad Prism 6 (GraphPad Software, Inc, San Diego, CA, USA). A p < 0.05 was considered to be statistically significant.

Vero cells = assay: XTT cytotoxicity assay on Vero cells; assay type: cell-based; settings: 72 h
Procedure: as §1, with “The selectivity index (IC50 Vero cells/IC50 MIA PaCa-2) and potentiation factor (PF50) at 50% growth inhibition (IC50) were also determined. The PF50 is the IC50 value of free drug divided by the IC50 value obtained from a combination of drugs, which is the polymer drug conjugate in this case.” left out, “A p < 0.05 was considered to be statistically significant.” left out

MIA PaCa-2 cells [2] = assay: Annexin V-FITC / propidium iodide apoptosis detection by flow cytometry; assay type: cell-based, human; settings: 4 µM, 72 h
Procedure: The mode of cell death induced by the BA and PEG–BA on MIA PaCa-2 and Vero cells was assessed using the Annexin V-FITC Apoptosis kit I (BD Biosciences, San Diego, CA, USA). The assay was performed per the manufacturer’s protocol and as previously described with slight modifications. The cells were analysed for apoptosis and necrosis after acquiring 30,000 events using a BD LSRFortessa™ Analyser (BD Biosciences, San Diego, CA, USA). The BD FACSDiva software was used to detect fluorescein isothiocyanate (FITC) positive signals for apoptotic cells (Annexin-v positive) on a 530/30 filter and peridinin–chlorophyll–protein (PerCP) positive signals for necrotic cells (propidium iodide positive) on a 610/20 band pass filter. Apoptosis was determined at three different concentrations around the IC50, 1, 1.7 and 4 µM. Doxorubicin (0.2 ug/mL) was used as a positive control for apoptosis induction. The data were exported as flow cytometry standard (FCS) files and analysed using FlowJo software Version 10 (FlowJo, LLC, Ashland, OR, USA). The data were exported and represented as means ± standard error of three independent experiments using GraphPad Prism 6.

IL-6 = assay: Cytometric bead array Th1/Th2/Th17, IL-6 in supernatant of PHA-P stimulated PBMCs; assay type: cell-based, human; settings: 3 µM, 72 h
Procedure: The supernatant obtained from PBMCs (1 × 10^6 cells/mL) treated and incubated (72 h, 37 °C, 5% CO2, 95% humidity) with BA and PEG–BA (3 µM) were used for this assay. Cytotoxicity was performed on isolated PBMCs (see Supplementary Materials for isolation protocol) using the 3-(4,5-dimethylthiazol-2-yl)-2,5-diphenyl tetrazolium bromide (MTT) assay as previously described. For the cytometric bead array (CBA) assay, the PBMCs were isolated from both consenting PC patients (n = 4) and healthy control donors (n = 2). Ethics clearance to collect blood samples was obtained from the Human Research Ethics Committee (Medical) of the University of the Witwatersrand (M170440). The PBMCs were stimulated with 2 µg/mL of phytohaemagglutinin-protein (PHA-P). […]
The CBA Th1/Th2/Th17 assay was performed according to the manufacturer’s instructions (BD Biosciences, La Jolla, San Diego, CA, USA) and as previously described, but with minor modifications. […] Specific fluorescence associated with each bead population was detected using flow cytometry allowing for the identification of the various cytokines in the sample. […] Acquired FCS files were analysed using a flow cytometric analysis software (FCAPArray™) from BD Biosciences. Interferon-gamma (IFN-γ), TNF-α, IL-2, IL-4, IL-6, IL-10 and IL-17A concentrations were all determined from standard curves. […]

[3] = test system: peripheral blood mononuclear cells (PBMCs); assay: MTT cytotoxicity assay on PBMCs; assay type: cell-based, human; settings: 3 µM
Procedure: (§2) The supernatant obtained from PBMCs (1 × 10^6 cells/mL) treated and incubated (72 h, 37 °C, 5% CO2, 95% humidity) with BA and PEG–BA (3 µM) were used for this assay. Cytotoxicity was performed on isolated PBMCs (see Supplementary Materials for isolation protocol) using the 3-(4,5-dimethylthiazol-2-yl)-2,5-diphenyl tetrazolium bromide (MTT) assay as previously described. For the cytometric bead array (CBA) assay, the PBMCs were isolated from both consenting PC patients (n = 4) and healthy control donors (n = 2). Ethics clearance to collect blood samples was obtained from the Human Research Ethics Committee (Medical) of the University of the Witwatersrand (M170440). The PBMCs were stimulated with 2 µg/mL of phytohaemagglutinin-protein (PHA-P). After the 72 h incubation period, the cells and medium were transferred to 5 mL Falcon® round-bottom polypropylene tubes and centrifuged at 433× g for 5 min at room temperature. Aliquots of the cell-free supernatant were collected and stored at −80 °C until needed for experiments.

[4] = MTT cytotoxicity assay on PBMCs; assay type: cell-based, human; settings: human, peripheral blood mononuclear cells (PBMCs), n = 4, read-out: PBMC viability
Procedure: as §2

Question: Which “cell death (cytotoxicity)” value (MIA PaCa-2 cells [1]; MIA PaCa-2 cells, 0.2 µg/mL (0.4 µM)) does the source give for `COc1cccc2c1C(=O)c1c(O)c3c(c(O)c1C2=O)C[C@@](O)(C(=O)CO)C[C@@H]3O[C@H]1C[C@H](N)[C@H](O)[C@H](C)O1` [Doxorubicin] here?
Answer: The value was 83.3 ± 1.6%.

Question: What about the “cell death (cytotoxicity)” value (Vero cells; 0.2 µg/mL (0.4 µM)) of the same molecule?
Answer: Its value is 43.24 ± 14.2%.

Question: Which “highest apoptotic effect (mainly late-apoptotic phase)” value (MIA PaCa-2 cells [2]) does the source give for `C=C(C)[C@@H]1CC[C@]2(C(=O)O)CC[C@]3(C)[C@H](CC[C@@H]4[C@@]5(C)CC[C@H](O)C(C)(C)[C@@H]5CC[C@]43C)[C@@H]12` [BA, betulinic acid] here?
Answer: Its value is 31.43 ± 16.7%.

Question: And the IL-6 concentration (IL-6; PBMCs of PC patients (n = 4), average)?
Answer: Its IL-6 concentration is 5430.94 pg/mL.

Question: And the IL-6 concentration (IL-6; PBMCs of control participants (n = 2))?
Answer: The IL-6 concentration was 396.24 pg/mL.

Question: What about the IC50 (MIA PaCa-2 cells [1]; Homo sapiens, MIA PaCa-2 cells, XTT) of the same molecule?
Answer: Its IC50 is 12.7 ± 0.34 µM.

Question: And the “selectivity index (SI) (IC50 Vero cells/IC50 MIA PaCa-2)” value (MIA PaCa-2 cells [1]; Vero vs MIA PaCa-2, XTT)?
Answer: The value was 1.4 and 1.43.

Question: And the “cytotoxicity on PBMCs” value [3]?
Answer: Its value is 49.2 ± 0.8%.

Question: What about the viability at 72 h, 3 µM [4] of the same molecule?
Answer: Its viability at 72 h, 3 µM is 9.2 ± 0.8%.

Question: And the IC50 (Vero cells; Primates, XTT)?
Answer: Its IC50 is 18.2 ± 0.09 µM.
